In assay [1] the test system is FADD-deficient Jurkat cells. The assay can be described thus: TNF-induced programmed necrosis of FADD-deficient Jurkat cells (Cell Titer-Glo viability). It is filed as cell-based, human. To be noted: for EC50: Homo sapiens, Jurkat. The procedure:
(§1) The biological test protocol is adopted to test effects of the compound on TNF-induced programmed necrosis of FADD (Fas-associated death domain)-deficient Jurkat cells and L929 cells.
(§2) Two different stimulation methods were used: treating with tumor necrosis factor (TNFα) alone, or treating with TNFα in combination of mitochondrial-derived cysteine-aspartate activator (SMAC) SM164. Cell viability was determined by measuring chemiluminescence values, thereby assessing the bioactivity of the compounds in inhibiting programmed cell necrosis.
(§3) Method: FADD-deficient Jurkat cells: FADD-deficient Jurkat cells (human peripheral blood leukemia T cell line) were cultured in vitro. After reaching logarithmic growth phase, cells were collected and centrifuged at 1000 rpm for 5 minutes. A supernatant was discarded. A cell concentration was adjusted to 2.5×10^5/mL, and cells were seeded into a 384-well plate at 40 µL per well. In the corresponding wells, 5 µL of SM164 (50 nM) and compounds diluted with cell culture medium were added. After pre-treatment at 37°C for 1 hour, 5 µL of TNFα (50 ng/mL) diluted with cell culture medium was added to each well as a stimulation group, while 5 µL of culture medium was added as a control group. After the plate was incubated in a cell culture incubator (37°C, 5% CO2) for 14 hours, 15 µL of Cell Titer-Glo solution was added to each well. Then, the plate was incubated at room temperature for 30 minutes. Luminescence was measured to assess intracellular ATP levels. Cell viability was set at 100% for unstimulated DMSO control wells. […] The plate was placed in a cell culture incubator (37°C, 5% CO2) and cultured for 12 hours. In the corresponding wells, 5 µL of SM164 (500 nM) and compounds diluted with cell culture medium were added. After pre-treatment at 37°C for 1 hour, 5 µL of TNFα (500 ng/mL) diluted with cell culture medium was added to the wells as a stimulation group, while 5 µL of culture medium was added as a control group. After the plate was incubated in the cell incubator (37°C, 5% CO2) for 14 hours, 15 µL of Cell Titer-Glo solution was added to each well. Then, the plate was incubated at room temperature for 30 minutes, and luminescence was measured to assess intracellular ATP levels. Cell viability was set at 100% for unstimulated DMSO control wells. EC50 values of the compounds were calculated using Prism GraphPad statistical software.
Background: Cellular ATP, detected with luciferase, serves as a proxy for viable cell number.

The next assay concerns L929 cells. Briefly: TNF-induced programmed necrosis of L929 cells (Cell Titer-Glo viability). It is filed as cell-based, mouse. To be noted: for EC50: Mus musculus. On the procedure: as §1, §2, §3
The target of another assay is T1, mouse derived RIPK1 (Mus musculus, UniProt Q60855).
T1 sequence (Q60855 1-656): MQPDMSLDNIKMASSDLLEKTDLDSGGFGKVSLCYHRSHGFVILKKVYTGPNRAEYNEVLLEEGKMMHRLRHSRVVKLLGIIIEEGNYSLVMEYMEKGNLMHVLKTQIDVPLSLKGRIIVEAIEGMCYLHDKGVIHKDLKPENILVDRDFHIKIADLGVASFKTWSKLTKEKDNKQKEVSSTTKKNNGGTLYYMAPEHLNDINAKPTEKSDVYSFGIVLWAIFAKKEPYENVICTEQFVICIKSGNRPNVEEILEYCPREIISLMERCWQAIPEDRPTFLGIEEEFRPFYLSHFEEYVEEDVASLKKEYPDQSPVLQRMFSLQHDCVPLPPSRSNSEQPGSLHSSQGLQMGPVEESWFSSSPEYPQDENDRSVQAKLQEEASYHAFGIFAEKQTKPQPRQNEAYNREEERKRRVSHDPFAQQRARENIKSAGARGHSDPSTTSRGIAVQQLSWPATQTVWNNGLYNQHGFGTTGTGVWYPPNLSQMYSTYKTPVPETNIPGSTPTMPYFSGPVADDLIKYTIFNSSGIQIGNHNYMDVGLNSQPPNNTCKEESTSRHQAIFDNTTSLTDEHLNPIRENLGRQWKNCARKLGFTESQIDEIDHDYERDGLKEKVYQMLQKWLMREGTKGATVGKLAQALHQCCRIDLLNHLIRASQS
Briefly: Inhibitory activity against mouse derived RIPK1 (statement only). To be noted: in words.

[2] abbreviates: read-out: EC50 (nM) FADD^-/- Jurkat cells (human-derived) TNFα.
Where [3] appears, read: L929, read-out: EC50 (nM) L929 cells (mouse-derived) TNFα.
Where [4] appears, read: stimulation with TNFα + SM164, read-out: EC50 (nM) FADD^-/- Jurkat cells (human-derived) TNFα+ SM164.
Setting [5] is: stimulation with TNFα alone, read-out: EC50 (nM) FADD^-/- Jurkat cells (human-derived) TNFα.
Setting [6] is: L929, stimulation with TNFα + SM164, read-out: EC50 (nM) L929 cells (mouse-derived) TNFα+ SM164.
Where [7] appears, read: L929, stimulation with TNFα alone, read-out: EC50 (nM) L929 cells (mouse-derived) TNFα.

From EP4741379A1, “CLASS OF PROGRAMMED CELL DEATH INHIBITORS, PREPARATION METHOD THEREFOR AND USE THEREOF” (SHANGHAI INSTITUTE OF ORGANIC CHEMISTRY, CHINESE ACADEMY OF …, priority 2023, dated 2025) come the findings set out here.

Like-named read-outs stand apart in the source and are kept apart here. Bounds are passed on as bounds.

On to `CN1C(=O)[C@@H](NC(=O)c2nnc(Cc3ccccc3)[nH]2)COc2cccnc21` [SAR443122, reference compound], for which the EC50 in assay [1] (setting [2]) is 0.9 nM; in the assay on L929 cells (setting [3]) it was over 1000 nM. Further, the “programmed necroptosis inhibitory activity on mouse derived L929 cells” value in the assay with L929 cells (in words) is “nearly inactive”. The “inhibitory activity against mouse derived RIPK1” value at mouse derived RIPK1 was “very poor inhibitory activity”.

Consider `C[C@H](NC(=O)c1nnn(C)c1Cc1ccccc1)c1ccc(C#Cc2ccc(C(C)(C)O)cn2)cc1` [IRCBC-120], for which the EC50 is 0.079 nM in assay [1] (setting [4]), 0.002 nM in assay [1] (setting [5]), 1.74 nM in the assay with L929 cells (setting [6]) and 0.438 nM with L929 cells (setting [7]).

As for `C[C@H](NC(=O)c1nnn(C)c1Cc1ccccc1)c1ccc(C#Cc2cncn2C)cc1` [QY-20-55], the EC50 in assay [1] (setting [4]) is 1.4 nM; in assay [1] (setting [5]), 0.1 nM; in the assay with L929 cells (setting [6]), 23 nM; in the assay with L929 cells (setting [7]), 2.2 nM.

Regarding `Cn1nnc(C(=O)NCc2ccc(C#Cc3ccccn3)c(F)c2)c1Cc1ccccc1` [IRCBC-058], the EC50 in assay [1] (setting [4]) was found to be 1.25 nM; in assay [1] (setting [5]), 0.018 nM; in the assay on L929 cells (setting [6]) it was 35.2 nM; with L929 cells (setting [7]), 1.5 nM.

For the molecule `C[C@H](NC(=O)c1nnn(C)c1Cc1ccccc1)c1ccc(C#Cc2cnc[nH]2)cc1` [IRCBC-005], the EC50 came out at 1.12 nM in assay [1] (setting [4]), 0.019 nM in assay [1] (setting [5]), 3.42 nM in the assay on L929 cells (setting [6]) and 2.09 nM in the assay with L929 cells (setting [7]).

In the case of `C[C@H](NC(=O)c1nnn(C)c1Cc1ccccc1)c1ccc(C#Cc2cccnc2)cc1` [QY-18-25], the EC50 in assay [1] (setting [4]) is 0.02 nM; in assay [1] (setting [5]), under 0.01 nM; with L929 cells (setting [6]), 1.2 nM; with L929 cells (setting [7]), 0.3 nM.

For `C[C@H](NC(=O)c1nnn(C)c1Cc1ccccc1)c1ccc(C#Cc2ccc(F)cn2)cc1` [IRCBC-049], the figures for the EC50 (in assay [1] (setting [2]); in the assay with L929 cells (setting [3])) were 0.002 nM and 0.118 nM, respectively.

Take `C[C@H](NC(=O)c1nnn(C)c1Cc1ccccc1)c1ccc(C#Cc2ccncc2)cc1` [QY-18-27]: the EC50 is 0.01 nM in assay [1] (setting [4]), under 0.01 nM in assay [1] (setting [5]), 0.06 nM in the assay on L929 cells (setting [6]) and 0.04 nM in the assay with L929 cells (setting [7]). Besides, the “programmed necroptosis inhibitory activity compared to SAR443122” value in assay [1] (TNFα alone or TNFα + SM164, human derived FADD-deficient Jurkat cells) is given as “stronger”.

Regarding `C[C@H](NC(=O)c1nnn(C)c1Cc1cccc(C#N)c1)c1ccc(C#Cc2ccccn2)cc1` [IRCBC-072], the EC50 in assay [1] (setting [4]) was 2.73 nM; in assay [1] (setting [5]), 0.049 nM; with L929 cells (setting [6]), 17.3 nM; in the assay on L929 cells (setting [7]), 1.79 nM.

On to `C[C@H](NC(=O)c1nnn(C)c1Cc1ccccc1)c1ccc(C#Cc2ccnc(N(C)C)c2)cc1` [IRCBC-101], for which the EC50 came to 0.582 nM in assay [1] (setting [4]), 0.036 nM in assay [1] (setting [5]), 2.1 nM with L929 cells (setting [6]) and 0.405 nM with L929 cells (setting [7]).

`C[C@H](NC(=O)c1nnn(C)c1Cc1ccccc1)c1ccc(C#Cc2ncccc2C#N)cc1` [IRCBC-121]: the values for the EC50 (in assay [1] (setting [4]); with L929 cells (setting [6]); in the assay on L929 cells (setting [7])) were 0.01 nM, 0.069 nM and 0.012 nM, respectively.
